Results: patent publication US4704407A, “Soluble dobutamine salts” (Eli Lilly and Company, priority 1986, dated 1987)
Counter-ions that a name gives are not always drawn. Each block holds one compound with its values, some of them ahead of it.

Tests used:
[1] = Solubility of dobutamine salts (as dobutamine base, in water); assay type: physicochemical
Description: 8.3 Millimoles of dobutamine free base and 8.7 millimoles of one of each of the following acids: glycolic, (+)-tartaric, gluconic, lactobionic and glucoheptonic, were mixed under an N2 atmosphere were an amount of 0.035 g aqueous sodium bisulfite dissolved in water for injection such that the final volume was […]; i.e., 100 mg/ml of dobutamine base. If required, the salt-forming mixture was warmed to expedite solution of dobutamine base. The solid salt can be obtained from the solution, if desired, by evaporation of the solvent.
The solubilities of each of the dobutamine salts thus prepared was in excess of 100 mg/ml. By contrast, a saturated solution of dobutamine hydrochloride provides about 25 mg/ml of dobutamine.
Furthermore, with any of the acids named, stereoisomers thereof can also be used rather than a racemate. Dobutamine content of all solutions is monitored with UV.

[2] = cited from earlier work
[3] = Storage stability of concentrate solutions; assay type: physicochemical; conditions: at 5° C., N2 atmosphere, with sodium bisulfite, pH=3.65
Description: In a repeat with (-) tartaric acid, 58.6 g of dobutamine hydrochloride in deaerated water were neutralized with dilute aqueous sodium hydroxide in the presence of a peroxide scavenger under N2; pH=11.09. The precipitate of dobutamine base was washed with the […] and dried. The filter cake was dissolvd in 2 l of deaerated water followed by 26.1 g of (-)-tartaric acid and 0.8 g of sodium bisulfite; pH=3.65. The solution was filtered and then stored at […], always under an N2 atmosphere. Such stored concentrate solutions are stable for 12 months or more at 5° C.

[4] = ascribed to dobutamine, U.S. Pat. No. 3,932,461
[5] = U.S. Pat. No. 3,932,461 (Suh I)

SMILES: CC(CCc1ccc(O)cc1)NCCc1ccc(O)c(O)c1 (racemic) [dobutamine salt of (±)-tartaric acid]
- solubility of the dobutamine salt (in words) ([1]; salts with further tartaric acid isomers): high solubility

SMILES: CC(CCc1ccc(O)cc1)NCCc1ccc(O)c(O)c1 (racemic) [dobutamine, (±)-N-[3-(4-hydroxyphenyl)-1-methylpropyl]2-(3,4-dihydroxyphenyl) ethylamine]
- solubility in water (in words) ([1]; dobutamine base separates from the alkaline medium): water-insoluble
- contractile force [2, 4]: increased contractile force
- effect on blood pressure or heart rate [2, 4]: without significant effect on blood pressure or heart rate

SMILES: CC(CCc1ccc2c(c1)OCO2)NCCc1ccc(O)c(O)c1 (centres unmarked) [N-[3-(3,4-methylenedioxyphenyl)-1-methylpropyl 2-(3,4-dihydroxyphenyl)ethylamine]
- cardiotonic properties [2, 5]: cardiotonic properties similar to those ascribed to dobutamine
- depressant or analgesic activity [2, 5]: depressants or analgesics

More lines, now with the values ahead:

- solubility ([1]; water, saturated solution, mg/ml of dobutamine, read-out: dobutamine provided by a saturated solution): ~25 mg/mL
SMILES: CC(CCc1ccc(O)cc1)NCCc1ccc(O)c(O)c1 (centres unmarked) [dobutamine hydrochloride]

- stability of stored concentrate solutions [3]: ≥ 12 months
SMILES: CC(CCc1ccc(O)cc1)NCCc1ccc(O)c(O)c1 (stereo not drawn) [dobutamine salt of (-)-tartaric acid]
